Article PMC7430049 (Journal of medicinal chemistry, 2019)

Legend:
G9a [1] = target: T1, G9a (Homo sapiens, UniProt Q96KQ7); conditions: read-out: Morrison Ki, G9a; cited from earlier work
T1 sequence (Q96KQ7 913-1193 limits assumed): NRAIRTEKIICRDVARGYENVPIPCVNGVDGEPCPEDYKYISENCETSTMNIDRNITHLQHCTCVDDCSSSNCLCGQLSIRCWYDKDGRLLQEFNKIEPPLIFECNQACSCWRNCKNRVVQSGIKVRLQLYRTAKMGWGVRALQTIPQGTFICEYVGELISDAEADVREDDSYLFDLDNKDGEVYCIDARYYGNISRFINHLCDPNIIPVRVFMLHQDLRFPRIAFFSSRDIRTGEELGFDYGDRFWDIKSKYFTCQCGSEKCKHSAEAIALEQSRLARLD

G9a [2] = target: T1, G9a; conditions: read-out: G9a IC50 (ECSD assay); ECSD assays; cited from earlier work
[3] = system: lysine N-methyltransferase SUV39H1(H320R); conditions: up to a 10 μM concentration; cited from earlier work
[4] = system: protein arginine methyltransferase 1 (PRMT1); conditions: up to a 10 μM concentration; cited from earlier work
human recombinant G9a [5] = target: T2, human recombinant G9a (Homo sapiens, UniProt Q96KQ7); assay: G9a inhibition, peptide-based AlphaLISA assay; assay type: biochemical; conditions: for fold reduction of G9a inhibitory activity compared to 12a: relative to 12a, from Table 1 IC50; for Hill slope of the concentration–response inhibition curve of G9a: AlphaLISA, four-parameter fit
T2 sequence (Q96KQ7 1-1210): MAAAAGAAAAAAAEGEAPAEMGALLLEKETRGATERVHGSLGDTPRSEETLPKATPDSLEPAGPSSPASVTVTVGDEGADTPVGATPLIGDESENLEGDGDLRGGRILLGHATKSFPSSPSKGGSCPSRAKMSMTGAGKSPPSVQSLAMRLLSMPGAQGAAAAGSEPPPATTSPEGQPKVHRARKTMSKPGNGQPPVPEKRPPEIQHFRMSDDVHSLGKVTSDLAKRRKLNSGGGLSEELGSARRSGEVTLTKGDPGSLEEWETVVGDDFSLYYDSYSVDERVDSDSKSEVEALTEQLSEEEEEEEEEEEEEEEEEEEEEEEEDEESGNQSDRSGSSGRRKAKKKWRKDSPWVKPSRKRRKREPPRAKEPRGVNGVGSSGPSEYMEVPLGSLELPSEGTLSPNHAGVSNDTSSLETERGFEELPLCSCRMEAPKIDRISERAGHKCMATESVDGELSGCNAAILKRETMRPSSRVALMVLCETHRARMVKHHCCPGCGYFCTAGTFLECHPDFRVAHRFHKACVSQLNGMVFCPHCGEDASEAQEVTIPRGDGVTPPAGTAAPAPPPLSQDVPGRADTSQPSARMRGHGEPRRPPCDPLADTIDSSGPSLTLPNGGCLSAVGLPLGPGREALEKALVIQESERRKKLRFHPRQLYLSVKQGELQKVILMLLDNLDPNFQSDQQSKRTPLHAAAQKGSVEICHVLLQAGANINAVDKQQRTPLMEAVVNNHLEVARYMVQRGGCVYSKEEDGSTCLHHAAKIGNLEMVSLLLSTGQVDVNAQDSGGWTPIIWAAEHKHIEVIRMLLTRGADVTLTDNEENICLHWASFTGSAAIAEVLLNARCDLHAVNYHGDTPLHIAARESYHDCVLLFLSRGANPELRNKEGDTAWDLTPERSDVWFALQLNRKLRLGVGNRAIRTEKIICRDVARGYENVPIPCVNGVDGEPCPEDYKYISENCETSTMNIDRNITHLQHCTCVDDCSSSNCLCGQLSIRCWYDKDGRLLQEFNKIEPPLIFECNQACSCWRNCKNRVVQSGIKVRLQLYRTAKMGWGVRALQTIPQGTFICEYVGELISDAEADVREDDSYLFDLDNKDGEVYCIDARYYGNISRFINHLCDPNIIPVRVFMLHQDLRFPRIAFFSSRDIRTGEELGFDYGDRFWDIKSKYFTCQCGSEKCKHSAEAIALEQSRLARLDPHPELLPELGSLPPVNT

human recombinant KDM4A = target: T3, human recombinant KDM4A (Homo sapiens, UniProt O75164); assay: KDM4A/JMJD2A inhibition, AlphaLISA assay; assay type: biochemical; conditions: tested at 10 and 25 μM
T3 sequence (O75164 1-1064): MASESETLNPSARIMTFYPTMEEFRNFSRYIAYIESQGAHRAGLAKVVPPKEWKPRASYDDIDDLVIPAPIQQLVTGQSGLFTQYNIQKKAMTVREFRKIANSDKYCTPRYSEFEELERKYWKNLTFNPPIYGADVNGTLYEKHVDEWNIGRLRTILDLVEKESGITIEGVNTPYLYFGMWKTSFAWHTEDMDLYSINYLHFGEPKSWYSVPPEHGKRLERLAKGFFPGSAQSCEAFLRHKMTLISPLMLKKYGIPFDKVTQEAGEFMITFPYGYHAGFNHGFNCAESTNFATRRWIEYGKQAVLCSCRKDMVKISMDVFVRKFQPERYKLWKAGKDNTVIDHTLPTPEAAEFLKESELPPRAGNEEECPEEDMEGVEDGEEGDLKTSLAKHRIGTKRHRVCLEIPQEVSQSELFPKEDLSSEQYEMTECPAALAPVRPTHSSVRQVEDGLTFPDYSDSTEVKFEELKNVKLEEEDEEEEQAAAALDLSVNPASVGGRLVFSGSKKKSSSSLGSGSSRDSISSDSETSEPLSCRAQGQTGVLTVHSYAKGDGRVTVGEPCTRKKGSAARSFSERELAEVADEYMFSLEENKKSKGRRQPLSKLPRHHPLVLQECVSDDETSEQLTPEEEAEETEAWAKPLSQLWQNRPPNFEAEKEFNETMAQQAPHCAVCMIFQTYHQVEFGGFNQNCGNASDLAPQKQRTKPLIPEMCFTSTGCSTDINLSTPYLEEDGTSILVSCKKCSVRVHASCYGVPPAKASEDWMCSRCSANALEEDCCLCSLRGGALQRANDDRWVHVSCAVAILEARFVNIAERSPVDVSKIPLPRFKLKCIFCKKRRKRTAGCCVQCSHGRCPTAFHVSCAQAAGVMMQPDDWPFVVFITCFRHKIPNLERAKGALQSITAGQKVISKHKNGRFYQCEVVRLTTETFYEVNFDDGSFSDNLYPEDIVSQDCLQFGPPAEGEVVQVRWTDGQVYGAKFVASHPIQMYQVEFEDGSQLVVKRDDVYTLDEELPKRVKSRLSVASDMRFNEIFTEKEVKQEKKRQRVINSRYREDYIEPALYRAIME

human recombinant PRMT1 = human recombinant PRMT1 (Homo sapiens, UniProt Q99873); assay: PRMT1 inhibition, AlphaLISA assay; assay type: biochemical; conditions: tested at 10 and 25 μM
human recombinant PRMT3 = human recombinant PRMT3 (Homo sapiens, UniProt O60678); assay: PRMT3 inhibition, AlphaLISA assay; assay type: biochemical; conditions: tested at 10 and 25 μM
human recombinant p300 = human recombinant p300 (Homo sapiens, UniProt Q09472); assay: KAT3B/p300 inhibition, AlphaLISA assay; assay type: biochemical; conditions: tested at 10 and 25 μM
human DNMT3a = human DNMT3a (Homo sapiens, UniProt Q9Y6K1); assay: HotSpot DNMT activity assay; assay type: biochemical; conditions: lambda DNA substrate
[6] = target: full-length human recombinant DNMT3b (Homo sapiens, UniProt Q9UBC3); assay: HotSpot DNMT activity assay; assay type: biochemical; conditions: lambda DNA substrate
G9a [7] = target: T1, G9a; assay: Surface plasmon resonance; assay type: binding
human recombinant G9a [8] = target: T2, human recombinant G9a; assay: Mechanism of action kinetics, AlphaLISA G9a assay, Lineweaver-Burk plots; assay type: biochemical; conditions: fixed H3 peptide 100 nM, varying SAM
[9] = Chemical stability in PBS, HPLC analysis; assay type: physicochemical; conditions: exposure to PBS over 72 h
MCF-7 cells = assay: MTT cell viability assay, MCF-7; assay type: cell-based, human; conditions: 0.05–50 μM; 24, 48, 72 h
MDA-MB-231 cells = assay: MTT cell viability assay, MDA-MB-231; assay type: cell-based, human; conditions: up to 5 μM, even after 72 h, vs vehicle
U-343 cells = assay: MTT cell viability assay, U-343; assay type: cell-based, human; conditions: up to 5 μM, even after 72 h, vs vehicle
[10] = system: H3K9me2 levels in MCF-7 cells; assay: Western blot of H3K9me2 in histone extracts, MCF-7; assay type: cell-based, human; conditions: 0.5 and 5 μM, 48 and 72 h
[11] = system: H3K9me2 levels in MDA-MB-231 cells; assay: Western blot of H3K9me2 in histone extracts, MDA-MB-231; assay type: cell-based, human; conditions: 0.5 and 5 μM, 48 and 72 h
[12] = system: H3K9me2 levels in U-343 cells; assay: Western blot of H3K9me2 in histone extracts, U-343; assay type: cell-based, human; conditions: 0.5 and 5 μM, 48 and 72 h
GLP over G9a = conditions: biochemical assays; cited from earlier work
[13] = Parallel artificial membrane permeability assay; assay type: in vitro ADME; conditions: PAMPA, pH 7.4
[14] = system: other lysine and arginine methyltransferases; conditions: up to a 10 μM concentration; cited from earlier work
in vitro = conditions: PAMPA, pH 7.4

Sequence of human recombinant PRMT3 (O60678 whole entry): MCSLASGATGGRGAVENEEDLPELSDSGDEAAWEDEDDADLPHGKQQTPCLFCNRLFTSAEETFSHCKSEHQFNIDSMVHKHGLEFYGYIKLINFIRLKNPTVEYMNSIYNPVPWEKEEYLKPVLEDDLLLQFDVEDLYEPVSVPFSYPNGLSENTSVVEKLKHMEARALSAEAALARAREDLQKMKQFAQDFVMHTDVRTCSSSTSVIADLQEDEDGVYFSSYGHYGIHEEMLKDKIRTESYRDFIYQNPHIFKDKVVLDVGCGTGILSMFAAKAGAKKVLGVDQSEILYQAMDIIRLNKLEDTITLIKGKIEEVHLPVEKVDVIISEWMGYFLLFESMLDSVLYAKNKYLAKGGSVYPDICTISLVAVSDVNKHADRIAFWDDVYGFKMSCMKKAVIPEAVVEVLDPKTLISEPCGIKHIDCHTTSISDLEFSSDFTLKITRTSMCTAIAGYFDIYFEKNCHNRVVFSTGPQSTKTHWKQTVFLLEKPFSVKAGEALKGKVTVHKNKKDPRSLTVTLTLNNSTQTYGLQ
Sequence of human recombinant p300 (Q09472 whole entry): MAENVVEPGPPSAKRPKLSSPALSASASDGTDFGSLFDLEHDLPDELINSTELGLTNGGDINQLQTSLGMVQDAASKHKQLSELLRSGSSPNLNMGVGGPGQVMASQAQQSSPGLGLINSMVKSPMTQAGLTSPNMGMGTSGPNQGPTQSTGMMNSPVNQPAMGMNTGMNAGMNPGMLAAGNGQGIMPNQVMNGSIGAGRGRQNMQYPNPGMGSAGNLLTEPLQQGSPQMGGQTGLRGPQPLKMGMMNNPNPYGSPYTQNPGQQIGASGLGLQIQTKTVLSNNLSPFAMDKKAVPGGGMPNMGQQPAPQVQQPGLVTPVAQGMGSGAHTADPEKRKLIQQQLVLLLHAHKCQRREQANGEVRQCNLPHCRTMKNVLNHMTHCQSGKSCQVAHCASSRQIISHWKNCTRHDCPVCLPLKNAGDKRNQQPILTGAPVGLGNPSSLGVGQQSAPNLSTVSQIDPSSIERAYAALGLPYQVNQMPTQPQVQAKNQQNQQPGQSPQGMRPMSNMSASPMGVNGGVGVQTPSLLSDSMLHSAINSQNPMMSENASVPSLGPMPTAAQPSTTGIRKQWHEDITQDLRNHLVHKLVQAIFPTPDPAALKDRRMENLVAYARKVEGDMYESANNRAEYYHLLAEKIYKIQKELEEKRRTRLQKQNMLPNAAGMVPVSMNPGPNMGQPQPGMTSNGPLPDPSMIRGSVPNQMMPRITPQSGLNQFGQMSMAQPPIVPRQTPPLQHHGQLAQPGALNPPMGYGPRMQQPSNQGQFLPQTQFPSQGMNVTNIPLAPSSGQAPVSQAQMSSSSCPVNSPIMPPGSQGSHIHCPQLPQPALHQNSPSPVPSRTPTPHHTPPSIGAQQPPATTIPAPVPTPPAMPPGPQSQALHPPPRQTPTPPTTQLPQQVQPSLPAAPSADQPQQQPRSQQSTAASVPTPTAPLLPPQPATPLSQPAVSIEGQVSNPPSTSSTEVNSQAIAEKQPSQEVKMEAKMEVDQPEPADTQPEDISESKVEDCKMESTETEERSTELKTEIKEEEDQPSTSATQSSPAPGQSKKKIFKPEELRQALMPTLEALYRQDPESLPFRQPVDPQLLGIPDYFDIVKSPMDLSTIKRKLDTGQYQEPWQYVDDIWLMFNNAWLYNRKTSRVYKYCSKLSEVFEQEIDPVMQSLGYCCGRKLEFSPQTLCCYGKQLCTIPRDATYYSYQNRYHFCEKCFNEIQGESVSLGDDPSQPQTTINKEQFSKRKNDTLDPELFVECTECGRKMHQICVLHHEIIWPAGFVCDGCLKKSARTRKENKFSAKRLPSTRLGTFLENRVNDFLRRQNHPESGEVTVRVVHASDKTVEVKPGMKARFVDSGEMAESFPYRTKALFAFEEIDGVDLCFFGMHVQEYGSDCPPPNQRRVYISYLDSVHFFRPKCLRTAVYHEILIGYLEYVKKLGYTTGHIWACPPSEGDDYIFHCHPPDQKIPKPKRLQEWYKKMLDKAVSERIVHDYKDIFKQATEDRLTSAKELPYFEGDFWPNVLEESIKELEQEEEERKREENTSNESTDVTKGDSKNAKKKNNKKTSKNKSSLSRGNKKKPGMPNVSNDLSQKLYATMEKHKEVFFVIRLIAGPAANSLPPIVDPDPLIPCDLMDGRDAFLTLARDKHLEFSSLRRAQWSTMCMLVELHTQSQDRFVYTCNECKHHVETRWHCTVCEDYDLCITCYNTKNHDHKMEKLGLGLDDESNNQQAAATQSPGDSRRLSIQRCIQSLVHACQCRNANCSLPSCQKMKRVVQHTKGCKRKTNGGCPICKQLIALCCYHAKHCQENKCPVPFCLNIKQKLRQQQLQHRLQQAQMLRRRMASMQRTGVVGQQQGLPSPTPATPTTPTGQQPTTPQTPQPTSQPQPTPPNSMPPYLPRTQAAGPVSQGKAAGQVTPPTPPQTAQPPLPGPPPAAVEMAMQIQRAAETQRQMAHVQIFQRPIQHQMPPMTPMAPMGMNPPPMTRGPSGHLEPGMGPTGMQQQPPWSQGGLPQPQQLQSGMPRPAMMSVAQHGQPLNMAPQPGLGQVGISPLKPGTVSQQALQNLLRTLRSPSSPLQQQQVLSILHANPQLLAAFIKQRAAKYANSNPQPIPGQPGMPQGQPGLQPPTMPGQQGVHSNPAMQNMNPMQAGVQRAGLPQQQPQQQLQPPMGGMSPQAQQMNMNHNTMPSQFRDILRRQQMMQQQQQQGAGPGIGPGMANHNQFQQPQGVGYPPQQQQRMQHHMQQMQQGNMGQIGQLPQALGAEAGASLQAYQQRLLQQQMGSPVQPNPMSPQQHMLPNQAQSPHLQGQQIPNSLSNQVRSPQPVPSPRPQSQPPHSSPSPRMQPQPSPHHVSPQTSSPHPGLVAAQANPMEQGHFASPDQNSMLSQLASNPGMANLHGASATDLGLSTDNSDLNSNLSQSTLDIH
Sequence of human recombinant PRMT1 (Q99873 whole entry): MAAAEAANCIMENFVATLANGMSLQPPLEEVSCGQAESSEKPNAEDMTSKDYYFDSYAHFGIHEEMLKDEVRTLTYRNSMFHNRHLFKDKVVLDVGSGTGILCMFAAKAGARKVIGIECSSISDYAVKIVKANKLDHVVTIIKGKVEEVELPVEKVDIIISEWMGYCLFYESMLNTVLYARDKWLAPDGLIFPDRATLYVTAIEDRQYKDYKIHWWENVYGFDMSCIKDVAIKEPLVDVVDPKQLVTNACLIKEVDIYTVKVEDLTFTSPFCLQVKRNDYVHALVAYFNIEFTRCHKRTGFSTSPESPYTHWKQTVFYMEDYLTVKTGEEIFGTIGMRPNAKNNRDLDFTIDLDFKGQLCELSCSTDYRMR
Sequence of human DNMT3a (Q9Y6K1 2-912 limits assumed): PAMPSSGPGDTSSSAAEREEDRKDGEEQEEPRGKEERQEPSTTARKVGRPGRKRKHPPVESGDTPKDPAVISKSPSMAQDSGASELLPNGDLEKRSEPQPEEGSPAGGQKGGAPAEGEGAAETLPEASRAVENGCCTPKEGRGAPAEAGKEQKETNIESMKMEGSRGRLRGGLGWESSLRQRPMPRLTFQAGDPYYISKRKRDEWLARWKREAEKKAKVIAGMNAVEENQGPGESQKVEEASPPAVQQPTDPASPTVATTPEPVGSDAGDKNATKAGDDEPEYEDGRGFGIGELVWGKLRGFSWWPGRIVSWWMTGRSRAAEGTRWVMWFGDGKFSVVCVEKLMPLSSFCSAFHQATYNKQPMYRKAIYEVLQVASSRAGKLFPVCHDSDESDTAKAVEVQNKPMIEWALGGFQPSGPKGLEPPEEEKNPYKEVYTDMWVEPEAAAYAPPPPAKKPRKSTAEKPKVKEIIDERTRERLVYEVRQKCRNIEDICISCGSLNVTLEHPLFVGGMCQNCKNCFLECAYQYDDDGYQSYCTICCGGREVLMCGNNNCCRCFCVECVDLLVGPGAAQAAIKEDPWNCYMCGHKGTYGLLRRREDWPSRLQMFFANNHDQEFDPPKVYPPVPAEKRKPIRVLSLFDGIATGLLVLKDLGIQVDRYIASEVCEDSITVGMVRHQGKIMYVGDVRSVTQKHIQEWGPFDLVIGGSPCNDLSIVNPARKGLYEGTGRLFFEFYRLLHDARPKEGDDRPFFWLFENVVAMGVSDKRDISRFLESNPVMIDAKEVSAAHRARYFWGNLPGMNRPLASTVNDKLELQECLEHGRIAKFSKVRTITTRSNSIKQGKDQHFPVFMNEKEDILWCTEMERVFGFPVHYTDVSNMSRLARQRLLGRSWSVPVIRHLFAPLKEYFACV

## COc1cc2c(NC3CCN(C)CC3)nc(N3CCCN(C)CC3)nc2cc1OCCOCCN(C)C [compound 5]
G9a [1]
  Ki: 0.063 nM
G9a [2]
  IC50: 9 nM

## COc1cc2nc(N3CCCN(C)CC3)nc(NC3CCN(Cc4ccccc4)CC3)c2cc1OC [compound 3]
[3]
  activity against SUV39H1(H320R): basically inactive
[4]
  activity against PRMT1: basically inactive

## COc1cc2c(cc1OCCCN1CCCC1)N=C(c1ccccc1)CN=C2NC1CCN(C(C)C)CC1 [12b, N-(1-Isopropylpiperidin-4-yl)-7-methoxy-2-phenyl-8-(3-(pyrrolidin-1-yl)propoxy)-3H-benzo[e][1,4]diazepin-5-amine]
Human recombinant G9a [5]
  fold reduction of G9a inhibitory activity compared to 12a: approximately 50 fold

## COc1cc2c(cc1OCCCN1CCCC1)N=C(C1CCCCC1)CN=C2NC1CCN(C(C)C)CC1 [12a, 2-Cyclohexyl-N-(1-isopropylpiperidin-4-yl)-7-methoxy-8-(3-(pyrrolidin-1-yl)propoxy)-3H-benzo[e][1,4]diazepin-5-amine]
Human recombinant G9a [5]
  Hill slope of the concentration–response inhibition curve of G9a: −2.7
Human recombinant KDM4A
  JMJD2A inhibition (in words): only poorly (or not at all) inhibited
Human recombinant PRMT1
  PRMT1 inhibition (in words): only poorly (or not at all) inhibited
Human recombinant PRMT3
  PRMT3 inhibition (in words): only poorly (or not at all) inhibited
Human recombinant p300
  p300 inhibition (in words): only poorly (or not at all) inhibited
Human DNMT3a
  DNMT3a inhibition (in words): inactive
[6]
  DNMT3b inhibition (in words): inactive
G9a [7]
  Kd: 63800 ± 950 nM
Human recombinant G9a [8]
  α Ki, noncompetitive against SAM: 1.1 ± 0.2 nM
[9]
  chemical stability (HPLC): did not decompose
MCF-7 cells
  cell toxicity (MTT), MCF-7: slight progressive increase of toxicity after 48 and 72 h
MDA-MB-231 cells
  cell toxicity (MTT), MDA-MB-231: did not significantly reduce the number of metabolically active MDA-MB-231 or U-343 cells
U-343 cells
  cell toxicity (MTT), U-343: did not significantly reduce the number of metabolically active MDA-MB-231 or U-343 cells
[10]
  dimethylation of lysine H3K9 (H3K9me2), MCF-7: marked and both concentration- and time-dependent reduction
[11]
  dimethylation of lysine H3K9 (H3K9me2), MDA-MB-231: marked and both concentration- and time-dependent reduction
[12]
  dimethylation of lysine H3K9 (H3K9me2), U-343: marked and both concentration- and time-dependent reduction

## CCCCCCNc1nc(NC2CCN(C)CC2)c2cc(OC)c(OC)cc2n1 [compound 9]
GLP over G9a
  selectivity for GLP over G9a: > 140 fold

## COc1cc2c(cc1OCCCN1CCCC1)NC(C1CCCCC1)CN=C2NC1CCN(C(C)C)CC1 (centres unmarked) [13a, 2-Cydohexyl-N-(1-isopropylpiperidin-4-yl)-7-methoxy-8-(3-(pyrrolidin-1-yl)propoxy)-2,3-dihydro-1H-benzo[e][1,4]-diazepin-5-amine]
Human recombinant G9a [5]
  fold reduction of G9a inhibitory activity compared to 12a: approximately 50 fold

## COc1cc2c(cc1OCCCN1CCCC1)N=C(C1CCCCC1)CC(NC1CCN(C(C)C)CC1)=N2 [compound 14, 4-Cyclohexyl-N-(1-isopropylpiperidin-4-yl)-8-methoxy-7-(3-(pyrrolidin-1-yl)propoxy)-3H-benzo[b][1,4]diazepin-2-amine]
Human recombinant G9a [5]
  fold reduction of G9a inhibitory activity compared to 12a: 130 fold

## COc1cc2c(NC3CCN(C(C)C)CC3)nc(C3CCCCC3)nc2cc1OCCCN1CCCC1 [compound 7]
Human recombinant G9a [5]
  Hill slope of the concentration–response inhibition curve of G9a: −1.3
[13]
  Papp at 24 h, 0.2 mM: 0.049 ×10⁻⁶ cm/s
[14]
  activity against other lysine and arginine methyltransferases: inactive
In vitro
  Papp at 24 h, 0.2 mM: 0.019 ×10⁻⁶ cm/s

## COc1cc2c(cc1OCCCN1CCCC1)NC(c1ccccc1)CN=C2NC1CCN(C(C)C)CC1 (centres unmarked) [13b, N-(1-Isopropylpiperidin-4-yl)-7-methoxy-2-phenyl-8-(3-(pyrrolidin-1-yl)propoxy)-2,3-dihydro-1H-benzo[e][1,4]-diazepin-5-amine]
Human recombinant G9a [5]
  fold reduction of G9a inhibitory activity compared to 12a: 100 fold
